Drawing on ChEMBL document CHEMBL5727282, “Dihydropyrrolopyridine inhibitors of ROR-gamma” (2019), this text covers IC50 for 1 molecule.

A value given as a limit tells only on which side of the number the result lay.

In the test the target is T1, Nuclear receptor ROR-gamma (Homo sapiens, UniProt P51449).
T1 sequence (P51449 whole entry): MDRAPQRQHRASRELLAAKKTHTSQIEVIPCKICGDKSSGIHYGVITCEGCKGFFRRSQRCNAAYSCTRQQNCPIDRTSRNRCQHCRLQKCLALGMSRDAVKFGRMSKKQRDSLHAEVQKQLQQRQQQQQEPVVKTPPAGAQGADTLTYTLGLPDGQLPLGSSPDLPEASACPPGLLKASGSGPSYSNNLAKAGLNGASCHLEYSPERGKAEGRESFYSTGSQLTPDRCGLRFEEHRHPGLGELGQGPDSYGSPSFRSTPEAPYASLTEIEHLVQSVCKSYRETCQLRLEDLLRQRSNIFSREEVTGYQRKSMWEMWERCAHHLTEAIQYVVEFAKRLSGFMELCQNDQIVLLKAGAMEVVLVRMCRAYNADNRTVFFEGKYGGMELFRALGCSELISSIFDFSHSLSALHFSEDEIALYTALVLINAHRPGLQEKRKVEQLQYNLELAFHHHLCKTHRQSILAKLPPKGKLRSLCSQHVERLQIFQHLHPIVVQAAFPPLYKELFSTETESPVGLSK
Kind of test: ROR gamma t 5xRORE Assay in Jurkat Cells (Assay 2): Compounds of the present invention were tested for ROR gamma inverse agonist activity in a cell-based, transcriptional activity assay. […] (Promega, Cat. # N1021) using KpnI and HindIII restriction sites. […] Luciferase activity in the conditioned supernatants was determined with NanoGlo assay reagents (Promega, Cat.# N1130).

Usually IC50 stands for the concentration at which inhibition is half-maximal. Low values mean greater potency in that assay, high ones weaker potency in that assay. With `CCS(=O)(=O)c1ccc(C2(NC(=O)c3cnc4c(c3)CN(Cc3ccc(C(F)(F)F)cc3)[C@H]4C(C)C)CC2)nc1`, the concentration for half-maximal inhibition (IC50) was < 100 nM.
